Bridge positions count the residues as written; N and C are the ends. Peptide text beside a SMILES is read from it.
What was measured:
PSA [1] = target: T1, PSA (Homo sapiens, UniProt P07288); experiment: Inhibition of GST-peptide binding to PSA by chemically synthesized peptides; set-up: PSA was purified from human seminal fluid as described previously (3); from tissue; details: synthetic peptide GACVAYCIEHHCWTCGA in 20-fold molar excess
Method: Peptides A1 and C4 were synthesized by standard solid phase Merrifield peptide synthesis using fmoc-chemistry. The peptides were assayed for binding with PSA by studying the ability of the synthetic peptide to inhibit the binding of the corresponding GST peptide with PSA. Synthetic peptide (0-333 nM) and the corresponding GST peptide (167 nM) were incubated with PSA captured by MAb 5E4 for 1 h. After this, the wells were washed, after which Eu^3+-labeled anti GST antibody was added. After further incubation and washing the bound fluorescence was measured as described above.
PSA had been captured by anti-PSA MAb in the microtitration wells. The binding was measured by IFMA.

PSA [2] = target: T1, PSA; experiment: Proteolytic cleavage of IGF-BP-3 by PSA, IGF-BP-3 IFMA; type: biochemical; set-up: PSA was purified from human seminal fluid as described previously (3); from tissue; host or cells: human seminal fluid; details: PSA 5 μg/mL, 100-fold molar excess of synthetic peptide, IGF-BP-3 70 ng/mL, 16 h at 37° C.; PSA alone 30%
Method: The extent of the cleavage of the substrate was quantitated by monitoring the decrease in IGF-BP-3 immunoreactivity due to proteolytic cleavage of it. PSA (5 μg/mL) was incubated with IGF-BP-3 (70 ng/mL) for 16 h at 37° C. with 100-fold molar excess of peptides to PSA and measured for IGF-BP3 immunoreactivity by IFMA as described (33). As control, the peptide was also added to the reaction mixture containing PSA and IGF-BP3 just before starting the immunoassay to quantify the possible interference of the peptide in the IFMA for IGF-BP-3.
In the experiments, PSA (5 μg/mL) in TBS buffer, pH 7.8 alone or with 100-fold molar excess of peptide was incubated with IGF-BP-3 (70 ng/mL) for 16 h at 37° C., after which the concentration of intact IGF-BP-3 was determined by IFMA.

T1 sequence (P07288 25-261): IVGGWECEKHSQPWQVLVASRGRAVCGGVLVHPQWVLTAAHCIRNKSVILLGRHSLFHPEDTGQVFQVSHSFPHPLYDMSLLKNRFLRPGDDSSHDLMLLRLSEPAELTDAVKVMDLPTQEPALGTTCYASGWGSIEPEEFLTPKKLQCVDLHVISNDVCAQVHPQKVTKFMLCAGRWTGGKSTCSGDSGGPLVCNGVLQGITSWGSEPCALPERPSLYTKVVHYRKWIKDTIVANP

## CC[C@H](C)[C@@H]1NC(=O)[C@@H]2CSSC[C@H](NC(=O)[C@H](Cc3c[nH]cn3)NC(=O)[C@H](Cc3c[nH]cn3)NC(=O)[C@H](CCC(=O)O)NC1=O)C(=O)N[C@@H](Cc1c[nH]c3ccccc13)C(=O)N[C@@H]([C@@H](C)O)C(=O)N[C@H](C(=O)O)CSSC[C@H](N)C(=O)N[C@@H](C(C)C)C(=O)N[C@@H](C)C(=O)N[C@@H](Cc1ccc(O)cc1)C(=O)N2 [Peptide C-4] (H-CVAYCIEHHCWTC-OH; disulfide 1-13, 5-10; N-terminus and C-terminus assumed)
PSA [1]
  inhibition of the binding of the corresponding GST-peptide to PSA: about 70%
PSA [2]
  cleavage of IGF-BP-3 by PSA in the presence of peptide: about 70%

— US7414023B2, “Peptide ligands for prostate specific antigen” (Licentia Ltd., priority 2000, dated 2008)
